From patent publication US12459951B2, “Compounds that interact with RAS superfamily proteins for treatment of cancers, inflammatory diseases, rasopathies, and fibrotic disease” (SHY Therapeutics, LLC, priority 2022, dated 2025)

Key:
[1] = test system: Smad2/Smad3 phosphorylation; assay: Phospho-Smad2/3 Inhibition Assay (western blot), Panc-1; format: cell-based, human; conditions: at 10 μM, Panc-1 pancreatic cancer cell line; starred symbols = activation
Outline: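 Panc-1 cells (KRas G12D), starved overnight in 0.5% FBS, treated 3 h at 37° C with compound at 10 μM final (0.3% DMSO) or serial dilutions for IC50, then stimulated with 10 ng/ml TGF-b1 for 1 h. Phospho-Smad2 (Ser465/467) and phospho-Smad3 (Ser423/425) detected by western blot.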

[2] = test system: Akt phosphorylation; assay: Akt Phosphorylation Assay (western blot), Panc-1; format: cell-based, human; conditions: at 10 μM, * = activation
Outline: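 Panc-1 (KRas G12D) cells were treated with compound at 10 μM final (0.3% DMSO) for 6 h at 37 °C, or with serial dilutions for IC50. Cells were either serum-starved overnight in 0.5% FBS and then stimulated with 1.5 ng/ml EGF for 15 min, or kept in 10% FBS without stimulation. Akt Ser473 phosphorylation in lysates was read by western blot.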

[3] = test system: TNF-alpha; assay: TNF-alpha Quantification Assay (ELISA), LPS-stimulated RAW 264.7; format: cell-based; conditions: Mus musculus, RAW264.7; at 10 μM; read-out: TNFα: % inh.

| SMILES | % inh of Smad2/3 phosphorylation in Panc-1 [1] | % inh of Akt phosphorylation in Panc-1 [2] | inhibition at 10 µM [3] |
| --- | --- | --- | --- |
| COc1cc(Nc2nc(-c3nccn3C)nn3cc(-c4ccn(C)n4)c(C)c23)ncc1C1CC1 [Compound 238, N-(5-Cyclopropyl-4-methoxypyridin-2-yl)-5-methyl-2-(1-methyl-1H-imidazol-2-yl)-6-(1-methyl-1H-pyrazol-3-yl)pyrrolo[2,1-f][1,2,4]triazin-4-amine] | 0 (0 = 0% inhibition) | D* (85-100% activation) | 50 to 74% |
| Cc1cnc2c(c1)CCN2c1nc(-c2nccn2C)nn2cc(-c3ccn(C)n3)c(C)c12 [Compound 239, 5-Methyl-2-(1-methyl-1H-imidazol-2-yl)-6-(1-methyl-1H-pyrazol-3-yl)-4-(5-methyl-2,3-dihydro-1H-pyrrolo[2,3-b]pyridin-1-yl)pyrrolo[2,1-f][1,2,4]triazine] | 0 (0 = 0% inhibition) | D* (85-100% activation) | 1 to 24% |
| Cc1c(-c2ccn(C)n2)cn2nc(-c3nccn3C)nc(Nc3cc(C(C)(C)O)ccn3)c12 [Compound 240, 2-(2-((5-Methyl-2-(1-methyl-1H-imidazol-2-yl)-6-(1-methyl-1H-pyrazol-3-yl)pyrrolo[2,1-f][1,2,4]triazin-4-yl)amino)pyridin-4-yl)propan-2-ol] | 0 (0 = 0% inhibition) | D* (85-100% activation) | 0% |
| Cc1c(-c2ccn(C)n2)cn2nc(-c3nccn3C)nc(Nc3ccc(C(C)(C)O)cn3)c12 [Compound 241, 2-(6-((5-Methyl-2-(1-methyl-1H-imidazol-2-yl)-6-(1-methyl-1H-pyrazol-3-yl)pyrrolo[2,1-f][1,2,4]triazin-4-yl)amino)pyridin-3-yl)propan-2-ol] | C* (C* = 46-75% activation) | D* (85-100% activation) | 1 to 24% |
| Cc1c(-c2ccn(C)n2)cn2nc(-c3nccn3C)nc(Nc3ccc(-n4ccnc4)cn3)c12 [Compound 242, N-(5-(1H-Imidazol-1-yl)pyridin-2-yl)-5-methyl-2-(1-methyl-1H-imidazol-2-yl)-6-(1-methyl-1H-pyrazol-3-yl)pyrrolo[2,1-f][1,2,4]triazin-4-amine] | A (A = 1-25% inhibition) | D* (85-100% activation) | 0% |
| Cc1c(-c2ccn(C)n2)cn2nc(-c3nccn3C)nc(Nc3ccc(-n4ccnc4C)cn3)c12 [Compound 243, 5-Methyl-N-(5-(2-methyl-1H-imidazol-1-yl)pyridin-2-yl)-2-(1-methyl-1H-imidazol-2-yl)-6-(1-methyl-1H-pyrazol-3-yl)pyrrolo[2,1-f][1,2,4]triazin-4-amine] | A* (A* = 1-25% activation) | D* (85-100% activation) | 0% |
